Earlier results in patent publication US10202400B2, “Cortistatin analogues and syntheses thereof” (President and Fellows of Harvard College, priority 2008, dated 2019).
≈ marks a conversion by molar mass, not a printed value.

How the values were obtained:
[1] = system: human umbilical vein endothelial cells (HUVECs)
[2] = system: several human and murine cancer cell lines and one normal human dermal fibroblast cell line (KB3-1, Neuro2A, K562, NHDF)
[3] = system: human nasopharynx carcinoma (KB) cells

| SMILES | GI50 [1] [µM] | tubular formation in HUVECs (HUVECs) | GI50 [2] [µM] | HUVEC cellular migration (HUVEC) | ED50 [3] [µg/mL] |
| --- | --- | --- | --- | --- | --- |
| CN(C)[C@H]1C[C@@]23CC[C@@]4(O2)C(=CC[C@]2(C)[C@@H](c5ccc6ccncc6c5)CC[C@H]24)C=C3[C@@H](O)[C@@H]1O [Cortistatin A, cortistatin A] | 0.00018 | inhibits tubular formation | 6 to 7 | inhibits HUVEC cellular migration |  |
| CN[C@@H](C)[C@H]1CC[C@H]2[C@@H]3CC[C@@H]4C(=CC3=CC[C@]12C)CC[C@H](NC)C4(C)C [buxenine G] |  |  |  |  | 0.4 (≈ 1.08 µM) |
